From PubChem BioAssay AID2060340 (Molecular Pharmacology Branch, DTP, NCI, 2025)

Tested on: 349418-098-R-PDC spheroids, viability, % test/control
Assay: Anticancer human tumor 349418-098-R-PDC patient-derived lung adenocarcinoma cell line growth inhibition [IpAb]
Details: spheroids with HUVEC and MSC; for IC50: curve of first compound; for viability, T/C: stronger effect = lower value
In short: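 Combinations with ipatasertib or abemaciclib were tested on tumour spheroids holding HUVEC (25%) and MSC (15%) alongside 60% malignant cells. Top concentration was at or near clinical Cmax (10 microM if undefined), descending in half-log steps.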

[1] = second compound 0.1 µM, first compound 0.0316 µM
[2] = second compound 0.1 µM, first compound 0.1 µM
[3] = second compound 0.316 µM, first compound 0.0316 µM
[4] = second compound 0.316 µM, first compound 0.1 µM
[5] = second compound 1 µM, first compound 0.0316 µM
[6] = second compound 1 µM, first compound 0.1 µM
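Further: spheroids exposed to compounds for 7 days.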

With `CC(C)n1nc(-c2ccc3oc(N)nc3c2)c2c(N)ncnc21` + CC(C)NCC(C(=O)N1CCN(c2ncnc3c2C(C)CC3O)CC1)c1ccc(Cl)cc1 as the compound, how does the IC50 (second compound 0.1 µM) read?
Its IC50 is 0.681 nM.

And the IC50 (second compound 0.316 µM)?
Its IC50 is less than 0.316 nM.

What about the IC50 (second compound 1 µM) of the same compound?
Its IC50 is less than 0.316 nM.

And the IC50 (second compound 3.16 µM)?
Its IC50 is less than 0.316 nM.

What about the IC50 (second compound 10 µM) of the same compound?
Its IC50 is less than 0.316 nM.

What about the viability, T/C (second compound 0.1 µM, first compound 0.000316 µM) of the same compound?
Its viability, T/C is 69.4%.

What about the viability, T/C (second compound 0.1 µM, first compound 0.001 µM) of the same compound?
The viability, T/C was 40.3%.

What about the viability, T/C (second compound 0.1 µM, first compound 0.00316 µM) of the same compound?
The viability, T/C was 14.5%.

What about the viability, T/C (second compound 0.1 µM, first compound 0.01 µM) of the same compound?
Its viability, T/C is 7.8%.

What about the viability, T/C [1] of the same compound?
The viability, T/C was 6.65%.

And the viability, T/C [2]?
Its viability, T/C is 6.26%.

What about the viability, T/C (second compound 0.316 µM, first compound 0.000316 µM) of the same compound?
The viability, T/C was 31.8%.

What about the viability, T/C (second compound 0.316 µM, first compound 0.001 µM) of the same compound?
Its viability, T/C is 17.4%.

And the viability, T/C (second compound 0.316 µM, first compound 0.00316 µM)?
The viability, T/C was 8.31%.

What about the viability, T/C (second compound 0.316 µM, first compound 0.01 µM) of the same compound?
The viability, T/C was 5.95%.

And the viability, T/C [3]?
Its viability, T/C is 5.66%.

And the viability, T/C [4]?
Its viability, T/C is 5.5%.

What about the viability, T/C (second compound 1 µM, first compound 0.000316 µM) of the same compound?
The viability, T/C was 14.4%.

And the viability, T/C (second compound 1 µM, first compound 0.001 µM)?
The viability, T/C was 8.54%.

And the viability, T/C (second compound 1 µM, first compound 0.00316 µM)?
The viability, T/C was 5.9%.

And the viability, T/C (second compound 1 µM, first compound 0.01 µM)?
The viability, T/C was 4.87%.

And the viability, T/C [5]?
Its viability, T/C is 5.35%.

And the viability, T/C [6]?
The viability, T/C was 4.7%.

And the viability, T/C (second compound 3.16 µM, first compound 0.000316 µM)?
Its viability, T/C is 10.7%.

What about the viability, T/C (second compound 3.16 µM, first compound 0.001 µM) of the same compound?
Its viability, T/C is 6.81%.

What about the viability, T/C (second compound 3.16 µM, first compound 0.00316 µM) of the same compound?
Its viability, T/C is 5.04%.

And the viability, T/C (second compound 3.16 µM, first compound 0.01 µM)?
Its viability, T/C is 4.7%.

And the viability, T/C (second compound 3.16 µM, first compound 0.0316 µM)?
The viability, T/C was 4.32%.

What about the viability, T/C (second compound 3.16 µM, first compound 0.1 µM) of the same compound?
Its viability, T/C is 5.98%.

And the viability, T/C (second compound 10 µM, first compound 0.000316 µM)?
Its viability, T/C is 6.8%.

What about the viability, T/C (second compound 10 µM, first compound 0.001 µM) of the same compound?
Its viability, T/C is 5.96%.

What about the viability, T/C (second compound 10 µM, first compound 0.00316 µM) of the same compound?
The viability, T/C was 5.29%.

What about the viability, T/C (second compound 10 µM, first compound 0.01 µM) of the same compound?
The viability, T/C was 3.92%.

What about the viability, T/C (second compound 10 µM, first compound 0.0316 µM) of the same compound?
The viability, T/C was 4.43%.

And the viability, T/C (second compound 10 µM, first compound 0.1 µM)?
The viability, T/C was 4.42%.

Which results are given for `C=CC(=O)N1CCN(c2nc(=O)n(-c3c(C)ccnc3C(C)C)c3nc(-c4c(O)cccc4F)c(F)cc23)C(C)C1` (stereo not given) + CCN1CCN(Cc2ccc(Nc3ncc(F)c(-c4cc(F)c5nc(C)n(C(C)C)c5c4)n3)nc2)CC1?
IC50 (second compound 0.01 µM): 4630 nM; IC50 (second compound 0.0316 µM): 124 nM; IC50 (second compound 0.1 µM): < 31.6 nM; IC50 (second compound 0.316 µM): < 31.6 nM; IC50 (second compound 1 µM): < 31.6 nM; viability, T/C (second compound 0.01 µM, first compound 0.0316 µM): 90.2%; viability, T/C (second compound 0.01 µM, first compound 0.1 µM): 82.9%; viability, T/C (second compound 0.01 µM, first compound 0.316 µM): 82.8%; viability, T/C (second compound 0.01 µM, first compound 1 µM): 87.1%; viability, T/C (second compound 0.01 µM, first compound 3.16 µM): 57.2%; viability, T/C (second compound 0.01 µM, first compound 10 µM): 35.5%; viability, T/C (second compound 0.0316 µM, first compound 0.0316 µM): 58.9%; viability, T/C (second compound 0.0316 µM, first compound 0.1 µM): 47.8%; viability, T/C (second compound 0.0316 µM, first compound 0.316 µM): 43.2%; viability, T/C (second compound 0.0316 µM, first compound 1 µM): 41.2%; viability, T/C (second compound 0.0316 µM, first compound 3.16 µM): 35.1%; viability, T/C (second compound 0.0316 µM, first compound 10 µM): 20.5%; viability, T/C [1]: 33.9%; viability, T/C [2]: 28.7%; viability, T/C (second compound 0.1 µM, first compound 0.316 µM): 31.4%; viability, T/C (second compound 0.1 µM, first compound 1 µM): 29.6%; viability, T/C (second compound 0.1 µM, first compound 3.16 µM): 23.3%; viability, T/C (second compound 0.1 µM, first compound 10 µM): 13.2%; viability, T/C [3]: 19.7%; viability, T/C [4]: 22%; viability, T/C (second compound 0.316 µM, first compound 0.316 µM): 22.1%; viability, T/C (second compound 0.316 µM, first compound 1 µM): 21.2%; viability, T/C (second compound 0.316 µM, first compound 3.16 µM): 18.1%; viability, T/C (second compound 0.316 µM, first compound 10 µM): 14.1%; viability, T/C [5]: 19.3%; viability, T/C [6]: 21.5%; viability, T/C (second compound 1 µM, first compound 0.316 µM): 20.9%; viability, T/C (second compound 1 µM, first compound 1 µM): 16%; viability, T/C (second compound 1 µM, first compound 3.16 µM): 19.2%; viability, T/C (second compound 1 µM, first compound 10 µM): 10.9%
